Source: the NIST ThermoML archive (doi:10.1021/je800517r)
“And” between values parts separate entries of the source, which are not always exact repeats. Equal values may be shown once.

Assay: activity coefficient (dimensionless); of the first substance listed, at infinite dilution; xn = mol fraction of the nth substance listed
Conditions: Liquid, comparative ebulliometry, circulation still, and differential distillation method, x1 = 0

CC(=O)N(C)C [N,N-dimethylethanamide] + O
Conditions	activity coefficient
343.15 K	1.27
343.51 K	1.29
349.03 K	1.46
351.15 K	1.37
353.5 K	1.72 and 1.79
363.87 K	2.06 and 2.24
370.86 K	2.12
372.28 K	2.05

CNC(C)=O [N-methylacetamide] + O
Conditions	activity coefficient
333.15 K	1.7
343.15 K	1.78
353.15 K	1.82

CNC=O [N-methylformamide] + O
Conditions	activity coefficient
333.15 K	1.37
343.15 K	1.42
353.15 K	1.44
372.65 K	1.65

CN(C)C=O [dimethylformamide] + O
Conditions	activity coefficient
343.73 K	1.23
349.05 K	1.27
353.45 K	1.3
357.91 K	1.3
358.5 K	1.36
363.82 K	1.35
368.38 K	1.59
371.62 K	1.54
372 K	1.66
